From patent US10526325B2, “Bicyclic heterocyclic derivatives” (Merck Patent GmbH, priority 2015, dated 2020)

Columns and labels:
[1] = system: PDH-E1alpha (pSer300) in HEK293T cells; assay: Cellular immunofluorescence assay, PDH-E1alpha (pSer300) in HEK293T cells; format: cell-based, human; conditions: Homo sapiens, HEK-293T, 5 hours incubation, anti-PDH-E1alpha (pSer300) immunofluorescence, read-out: IC50 (cell data)
Method in brief: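 Human HEK293T cells exposed to compound for 5 h, then fixed, permeabilised and immunostained for phospho-Ser300 PDH-E1α with Alexa 488 secondary and Hoechst counterstain. Fluorescence read by laser scanning cytometry. Data normalized to a pharmacological inhibitor control for dose-response curves.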

PDHK2 = PDHK2 (Homo sapiens (Human), UniProt Q15119); assay: Biochemical activity testing of PDHK2: PDC inactivation assay; conditions: human rec PDHK2, porcine heart PDC, 5 μM ATP, read-out: IC50 PDHK2 (enzyme assay)
Method in brief: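 Recombinant human PDHK2 (137 nM final) and porcine heart PDC (20 mU/ml) preincubated with compound 30 min at RT in pH 7.0 phosphate kinase buffer, then 5 μM ATP 30 min at 37° C. PDC activity read as NADH fluorescence increase (Ex 340/Em 450 nm) over 45 min with pyruvate, NAD and CoA; 3 mM DCA defined zero; IC50 determined.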

human PDHK2 (12-407) = human PDHK2 (12-407) (Homo sapiens (Human), UniProt Q15119); assay: Isothermal titration calorimetry (ITC) binding; conditions: ITC at 30° C., pH 7.5
Method in brief: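 Tag-free human PDHK2 (12-407) from E. coli, 50 μM, titrated into 5 μM compound at 30° C in 20 mM HEPES, 135 mM KCl, 1 mM TCEP, 2 mM MgCl2, 15 mM NaH2PO4, pH 7.5, ≤1% DMSO. One-site fit gave KA, ΔH^obs and N after dilution-heat correction. Protein and compound concentrations were normalised to 1:1 stoichiometry against a standard inhibitor.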

Row | Compound | IC50 [1] [µM] | IC50 (PDHK2) [µM] | Kd (human PDHK2 (12-407)) [µM]
1 | CC1CN(C(=O)[C@@](C)(O)C(F)(F)F)Cc2cn(-c3ccccc3)nc21 (stereo partly drawn) [Compound A17, (R)-3,3,3-Trifluoro-2-hydroxy-2-methyl-1-(7-methyl-2-phenyl-2,4,6,7-tetra-hydro-pyrazolo[4,3-c]pyridin-5-yl)-propan-1-one] | 0.3 to 3 | 0.3 to 3 | 0.3 to 3
2 | C[C@H]1CN(C(=O)[C@@](C)(O)C(F)(F)F)Cc2cnn(-c3ccc(Cl)cc3)c21 [Compound A11, (R)-1-[(S)-1-(4-Chloro-phenyl)-7-methyl-1,4,6,7-tetrahydro-pyrazolo[4,3-c]pyridin-5-yl]-3,3,3-trifluoro-2-hydroxy-2-methyl-propan-1-one] | 0.3 to 3 | 3 to 50 | 0.3 to 3
